In PubChem BioAssay AID248 (DTP/NCI, 2004):
Values joined by “and” are separate entries in the source; they are usually repeats but may differ in a detail not shown here. Equal values may be shown once. Toxic doses and inconclusive results are not listed. Cut-off read from the data, not from the text of the source: active = T/C of 150% or more; inactive = T/C below 125%.

System: L1210 leukemia ip in BDF1 mice, survival T/C
Experiment: NCI In Vivo Anticancer Drug Screen. Data for tumor model L1210 Leukemia (intraperitoneal) in B6D2F1 (BDF1) mice
Conditions: endpoint: mean survival time, higher = longer survival
Method in brief: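 Value reflects the ratio of survival in compound-treated mice to survival in vehicle-treated controls, with both groups carrying the same transplanted tumor.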

[1] = dose: 100.0 mg/kg/injection, schedule: Q04DX003 (ip), vehicle: saline with Tween-80
[2] = dose: 200.0 mg/kg/injection, schedule: Q04DX003 (ip), vehicle: saline with Tween-80
[3] = dose: 400.0 mg/kg/injection, schedule: Q04DX003 (ip), vehicle: saline with Tween-80
[4] = dose: 100.0 mg/kg/injection, schedule: Q01DX009 (ip), vehicle: Klucel (hydroxypropylcellulose) (HPC)
[5] = dose: 400.0 mg/kg/injection, schedule: Q01DX009 (ip), vehicle: Klucel (hydroxypropylcellulose) (HPC)
[6] = dose: 100.0 mg/kg/injection, schedule: Q01DX001 (ip), vehicle: saline
[7] = dose: 200.0 mg/kg/injection, schedule: Q01DX001 (ip), vehicle: saline
[8] = dose: 400.0 mg/kg/injection, schedule: Q01DX001 (ip), vehicle: saline
[9] = dose: 100.0 mg/kg/injection, schedule: Q01DX001 (ip), vehicle: carboxymethylcellulose (CMC)
[10] = dose: 200.0 mg/kg/injection, schedule: Q01DX001 (ip), vehicle: carboxymethylcellulose (CMC)
[11] = dose: 400.0 mg/kg/injection, schedule: Q01DX001 (ip), vehicle: carboxymethylcellulose (CMC)
[12] = dose: 50.0 mg/kg/injection, schedule: Q01DX009 (ip), vehicle: saline
[13] = dose: 100.0 mg/kg/injection, schedule: Q01DX009 (ip), vehicle: saline
[14] = dose: 200.0 mg/kg/injection, schedule: Q01DX009 (ip), vehicle: saline
[15] = dose: 400.0 mg/kg/injection, schedule: Q01DX009 (ip), vehicle: saline
[16] = dose: 100.0 mg/kg/injection, schedule: Q04DX002 (ip), vehicle: saline
[17] = dose: 100.0 mg/kg/injection, schedule: Q04DX003 (ip), vehicle: saline
[18] = dose: 200.0 mg/kg/injection, schedule: Q04DX003 (ip), vehicle: saline
[19] = dose: 400.0 mg/kg/injection, schedule: Q04DX003 (ip), vehicle: saline
[20] = dose: 200.0 mg/kg/injection, schedule: Q01DX009 (ip), vehicle: Klucel (hydroxypropylcellulose) (HPC)
[21] = dose: 100.0 mg/kg/injection, schedule: Q04DX002 (ip), vehicle: Klucel (hydroxypropylcellulose) (HPC)
[22] = dose: 200.0 mg/kg/injection, schedule: Q04DX002 (ip), vehicle: Klucel (hydroxypropylcellulose) (HPC)
[23] = dose: 400.0 mg/kg/injection, schedule: Q04DX002 (ip), vehicle: Klucel (hydroxypropylcellulose) (HPC)

Measured: T/C

Clc1ccccc1Br
inactive: dose: 100.0 mg/kg/injection, schedule: Q01DX007 (ip), vehicle: saline with Tween-80 104 % of control | [1] 95 % of control | dose: 200.0 mg/kg/injection, schedule: Q01DX007 (ip), vehicle: saline with Tween-80 98 % of control | [2] 96 % of control | dose: 400.0 mg/kg/injection, schedule: Q01DX007 (ip), vehicle: saline with Tween-80 96 % of control | [3] 98 % of control

Cc1ccc(C)c(NC(=O)Nc2ccc(Nc3ccccc3)cc2)c1
inactive: [4] 88 % of control | [5] 91 % of control

COc1ccc(-c2ccccc2)cc1C(=O)CCC(=O)O
inactive: [6] 100 % of control | [7] 96 % of control | [8] 96 % of control

CS(=O)(=O)n1c(CO)nc2ccccc21
inactive: [9] 101 % of control | [10] 92 % of control | [11] 97 % of control

CN(C)c1ncnc2c1ncn2C1CCC(CO)C1 (stereo unspecified)
inactive: [9] 105 % of control | [10] 96 % of control

OC1OCCOC1O (stereo unspecified)
inactive: [12] 100 % of control | [13] 100 % of control | [14] 109 % of control | [15] 103 % of control

c1ccc2nc3c(cc2c1)[nH]c1ccccc13
inactive: dose: 100.0 mg/kg/injection, schedule: Q04DX002 (ip), vehicle: gum acacia 92 % of control | dose: 200.0 mg/kg/injection, schedule: Q04DX002 (ip), vehicle: gum acacia 106 % of control | dose: 400.0 mg/kg/injection, schedule: Q04DX002 (ip), vehicle: gum acacia 103 % of control

OCC(O)C(O)C(O)C(O)CNCC(O)C(O)C(O)C(O)CO (stereo unspecified)
inactive: [16] 98 % of control and 91 % of control and 88 % of control | dose: 200.0 mg/kg/injection, schedule: Q04DX002 (ip), vehicle: saline 91 % of control and 100 % of control | dose: 400.0 mg/kg/injection, schedule: Q04DX002 (ip), vehicle: saline 91 % of control and 107 % of control and 95 % of control

O=C(Nc1ncn[nH]1)C(F)(F)F
inactive: [6] 103 % of control | [7] 103 % of control | [8] 92 % of control

CC(N)C(=O)O (stereo unspecified)
inactive: dose: 25.0 mg/kg/injection, schedule: Q04DX002 (ip), vehicle: saline 101 % of control | dose: 50.0 mg/kg/injection, schedule: Q04DX002 (ip), vehicle: saline 101 % of control | [6] 92 % of control | [13] 104 % of control | [16] 104 % of control | [17] 97 % of control | [7] 96 % of control | [14] 91 % of control | [18] 100 % of control | [8] 105 % of control | [15] 98 % of control | [19] 100 % of control

CC[C@@H]1C[C@@H]2CN3CCc4c([nH]c5ccc(OC)cc45)C(C(=O)OC)(C2)C13
inactive: dose: 50.0 mg/kg/injection, schedule: Q01DX009 (ip), vehicle: Klucel (hydroxypropylcellulose) (HPC) 89 % of control | [4] 94 % of control | [20] 89 % of control

O=C(O)c1cccc(NC(=O)C(F)(F)F)c1
inactive: dose: 100.0 mg/kg/injection, schedule: Q01DX001 (ip), vehicle: Klucel (hydroxypropylcellulose) (HPC) 94 % of control | dose: 100.0 mg/kg/injection, schedule: Q04DX003 (ip), vehicle: Klucel (hydroxypropylcellulose) (HPC) 102 % of control | dose: 200.0 mg/kg/injection, schedule: Q01DX001 (ip), vehicle: Klucel (hydroxypropylcellulose) (HPC) 96 % of control | dose: 200.0 mg/kg/injection, schedule: Q04DX003 (ip), vehicle: Klucel (hydroxypropylcellulose) (HPC) 108 % of control | dose: 400.0 mg/kg/injection, schedule: Q01DX001 (ip), vehicle: Klucel (hydroxypropylcellulose) (HPC) 100 % of control | dose: 400.0 mg/kg/injection, schedule: Q04DX003 (ip), vehicle: Klucel (hydroxypropylcellulose) (HPC) 103 % of control

CC(O)C(O)C(=O)O (stereo unspecified)
inactive: dose: 25.0 mg/kg/injection, schedule: Q01DX009 (ip), vehicle: saline 95 % of control | [12] 90 % of control | [6] 96 % of control | [13] 95 % of control | [17] 108 % of control | [7] 102 % of control | [18] 101 % of control | [8] 96 % of control | [19] 94 % of control

COc1ccc2c3c([nH]c2c1)-c1ccccc1SC3
inactive: dose: 100.0 mg/kg/injection, schedule: Q04DX003 (ip), vehicle: acetone 101 % of control | dose: 200.0 mg/kg/injection, schedule: Q04DX003 (ip), vehicle: acetone 106 % of control | dose: 400.0 mg/kg/injection, schedule: Q04DX003 (ip), vehicle: acetone 101 % of control

N#C/C(=C\c1cccn1Cc1ccc2c(c1)OCO2)C(N)=O
inactive: dose: 25.0 mg/kg/injection, schedule: Q04DX002 (ip), vehicle: Klucel (hydroxypropylcellulose) (HPC) 101 % of control | dose: 50.0 mg/kg/injection, schedule: Q04DX002 (ip), vehicle: Klucel (hydroxypropylcellulose) (HPC) 101 % of control | [21] 96 % of control

COc1cc(C(=O)Nc2ccccc2SC)cc(OC)c1OC
inactive: [21] 100 % of control | [22] 97 % of control | [23] 90 % of control

COc1ccccc1/C=N\NC(=S)Nc1ccc(F)cc1
inactive: dose: 60.0 mg/kg/injection, schedule: Q01DX Z (oral), vehicle: methylcellulose (MC) 106 % of control | dose: 120.0 mg/kg/injection, schedule: Q01DX Z (oral), vehicle: methylcellulose (MC) 90 % of control | dose: 240.0 mg/kg/injection, schedule: Q01DX Z (ip), vehicle: methylcellulose (MC) 92 % of control | dose: 240.0 mg/kg/injection, schedule: Q01DX Z (oral), vehicle: methylcellulose (MC) 96 % of control | dose: 480.0 mg/kg/injection, schedule: Q01DX Z (ip), vehicle: methylcellulose (MC) 91 % of control | dose: 480.0 mg/kg/injection, schedule: Q01DX Z (oral), vehicle: methylcellulose (MC) 93 % of control

Cc1ccc(S(=O)(=O)OC2CCC(=O)CC2)cc1
inactive: dose: 75.0 mg/kg/injection, schedule: Q01DX001 (ip), vehicle: acetone 92 % of control | dose: 150.0 mg/kg/injection, schedule: Q01DX001 (ip), vehicle: acetone 97 % of control | dose: 300.0 mg/kg/injection, schedule: Q01DX001 (ip), vehicle: acetone 100 % of control

CCCCCCCCCCCCC(=O)N(CCC)CCC
inactive: [21] 98 % of control | [22] 98 % of control | [23] 102 % of control

O=C(N/N=C/c1ccccc1O)c1ccccc1O
inactive: [1] 95 % of control | [2] 92 % of control | [3] 93 % of control

OC1(CBr)CCCCC1
inactive: [1] 102 % of control | [2] 98 % of control | [3] 95 % of control

CC(=O)c1cccc(NC(=O)Nc2cccc(F)c2)c1
inactive: [4] 103 % of control | [20] 97 % of control | [5] 110 % of control

O=Cc1cc2c(cc1Cl)OCO2
inactive: [1] 92 % of control | [2] 86 % of control | [3] 97 % of control

Cc1cc(C)c(/C=C2\CCNC2=O)c(C)c1
inactive: dose: 50.0 mg/kg/injection, schedule: Q01DX001 (ip), vehicle: carboxymethylcellulose (CMC) 96 % of control | [9] 90 % of control | [10] 100 % of control | [11] 105 % of control

O=C1/C(=C\c2ccccc2)N2CCC1CC2
inactive: dose: 100.0 mg/kg/injection, schedule: Q04DX002 (ip), vehicle: saline with Tween-80 87 % of control | [17] 103 % of control | dose: 200.0 mg/kg/injection, schedule: Q04DX002 (ip), vehicle: saline with Tween-80 91 % of control | [18] 108 % of control | dose: 400.0 mg/kg/injection, schedule: Q04DX002 (ip), vehicle: saline with Tween-80 87 % of control | [19] 103 % of control

C1CCC2(CC1)SCCCS2
inactive: [6] 102 % of control | [7] 113 % of control | [8] 110 % of control

OC(CNc1ccc(Cl)cc1)CN1CCCC1 (stereo unspecified)
inactive: dose: 75.0 mg/kg/injection, schedule: Q04DX003 (ip), vehicle: saline 101 % of control
